One block for each compound: values may come before it.
Tests used:
[1] = target: BRD4 (Homo sapiens, UniProt O60885); assay: AlphaScreen assay against BRD4; format: binding
[2] = target: T1, purified human cytochrome p450 reductase (Homo sapiens, UniProt P16435); assay: Purified reductase assay (hypoxic/normoxic incubation, HPLC); format: in vitro ADME; settings: 250 nM
T1 construct: purchased Cypex
T1 sequence (P16435 1-677): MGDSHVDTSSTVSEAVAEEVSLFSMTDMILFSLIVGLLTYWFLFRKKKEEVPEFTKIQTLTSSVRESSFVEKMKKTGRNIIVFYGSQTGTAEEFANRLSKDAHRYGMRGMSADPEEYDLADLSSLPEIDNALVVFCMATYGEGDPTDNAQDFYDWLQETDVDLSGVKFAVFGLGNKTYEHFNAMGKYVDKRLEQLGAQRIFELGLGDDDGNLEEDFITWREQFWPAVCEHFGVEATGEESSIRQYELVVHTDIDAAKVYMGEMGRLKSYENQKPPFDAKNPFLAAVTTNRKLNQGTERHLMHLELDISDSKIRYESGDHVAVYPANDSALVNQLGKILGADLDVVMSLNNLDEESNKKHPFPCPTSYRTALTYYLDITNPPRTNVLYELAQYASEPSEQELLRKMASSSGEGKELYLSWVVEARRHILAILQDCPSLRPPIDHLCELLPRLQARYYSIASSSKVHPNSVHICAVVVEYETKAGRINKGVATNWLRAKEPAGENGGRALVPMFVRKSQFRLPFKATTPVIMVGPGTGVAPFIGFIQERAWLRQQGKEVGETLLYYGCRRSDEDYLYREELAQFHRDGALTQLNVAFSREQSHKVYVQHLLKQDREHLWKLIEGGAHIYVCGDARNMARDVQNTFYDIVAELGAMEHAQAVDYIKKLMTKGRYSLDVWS
Protocol: The bioreductive compound 18 (Example 1) was incubated with purified human cytochrome p450 reductase in hypoxic and normoxic conditions.
Bactosomal human NADPH-CYP reductase (Cypex, 12.7 mg/mL, 13900 nmol/min/mL) was used in combination with an NADPH-regenerating system (BD Biosciences), and the assay was carried out according to the manufacturer's protocol (BD Biosciences application note 467) at a compound 18 concentration of 250 nM. For hypoxic conditions, vials were deoxygenated by bubbling nitrogen prior to P450 addition and then transferred into a Bactron II (Shell laboratories). Samples were taken at different time points and analyzed by HPLC.

[3] = test system: RKO (colorectal) cancer cell lines; assay: Cell-based assay: incubation in RKO cells, HPLC of the lysate
Protocol: Compound 21 was administered to cells in culture and incubated in (a) hypoxic and (b) normoxic conditions.
RKO (colorectal) cancer cell lines were cultured in DMEM medium containing 10% FBS, penicillin (100 U/mL) and streptomycin (100 μg/mL). RKO cell line was originally obtained from the ATCC and routinely mycoplasma tested and found to be negative. Experiments were carried out with cells at 75% confluence.
Hypoxia Treatments were carried out in a Bactron II (Shell laboratories), In vivo 400 (Ruskinn), or Heracell mixed gas incubator (Fisher Scientific) depending on the level of hypoxia required.
HPLC Analysis HPLC (Waters 2695 system) comprised an RPB column (100 mm×3.2 mm, 35° C.). […] Detection used a photodiode array spectrophotometer (Waters 2996), a mass spectrometer (Waters Micromass ZQ mass spectrometer), and a UV spectrometer (Waters 296 diode array detector) scanning from 210 nm to 400 nm with a resolution set at 3.6 nm. Injections of 10 μL were made.

[4] = target: T2, Cytochrome P450 reductase (Homo sapiens, UniProt P16435); assay: Cytochrome P450 reductase assay of compound A; format: in vitro ADME; settings: anaerobic conditions, over 8 h (FIG. 8)
T2 sequence (P16435 1-677): T1 sequence (P16435 1-677)
Protocol: Compound A was subject to a Cytochrome P450 reductase assay in accordance with the procedure of Cazares-Korner (CH-01 is a hypoxia-activated prodrug that sensitizes cells to hypoxia/reoxygenation through inhibition of Chk1 and Aurora A., ACS Chem. Biol. 2013 DOI:10.1021/cb4001537).
FIG. 8 records absorbance at 0, 2, 4 and 8 hours under hypoxic (FIG. 8a) and normoxic (FIG. 8b) conditions.

[5] = Fluorimetry of compound A and its reduced counterpart B; format: physicochemical; settings: 50 μM in iPrOH, excitation wavelength 515 nm, (FIG. 6)
Protocol: Compound A (Example 7) was synthesised in accordance with Sun et at (Chem. Commun., 2013, 49, 3890-3892). Fluorescence spectra of the compound, as well as its reduced counterpart compound B, was confirmed by fluorimetry.
50 μM solutions of A and B were prepared in iPrOH and fluorimetry carried out using a Perkin Elmer Luminescence Spectrometer LS 50 B with an excitation wavelength of 515 nm. Results are depicted in FIG. 6.

- decrease in potency vs compound 3 ([1]; BRD4 AlphaScreen IC50, compound 18 vs compound 3): 2 fold
- IC50 ([1]; same AlphaScreen assay): 749 nM
- reduction/fragmentation by human CYP reductase ([2]; normoxic conditions, HPLC (FIG. 2b)): no activation was observed
Structure (SMILES): Cc1noc(C)c1-c1cc(OCc2c([N+](=O)[O-])ccc3ncccc23)cc(C(O)c2ccccc2)c1 (stereo not drawn) [Compound 18, (3-(3,5-Dimethylisoxazol-4-yl)-5-((6-nitroquinolin-5-yl)methoxy)phenyl)(phenyl) methanol]
- reduction/fragmentation by human CYP reductase ([2]; hypoxic conditions, HPLC (FIG. 2a)): undergoes reduction by human CYP, including fragmentation to release compound 3

- UV absorbance of the compound's peak in the cell lysate ([3]; normoxia, over 24 h, HPLC (FIG. 3b)): continued to increase
- melting point: 204 to 206 °C
Structure (SMILES): CC(=O)Nc1ccc(OCc2c([N+](=O)[O-])ccc3ncccc23)cc1 [Compound 21, N-(4-((6-Nitroquinolin-5-yl)methoxy)phenyl)acetamide]
- UV absorbance of the compound's peak in the cell lysate ([3]; hypoxia, HPLC (FIG. 3a)): hypoxia-dependent decrease in UV absorbance

- reductive conversion to compound B [4]: trace reductive conversion to compound B
- difference in fluorescence emission between A and B [5]: ~650 fold
Structure (SMILES): N#CC(C#N)=C1C=C(/C=C/c2ccc(N=[N+]=[N-])cc2)Oc2ccccc21 [Compound A, (E)-2-(2-(4-azidostyryl)-4H-chromen-4-ylidene)malononitrile]

Source: patent US20160264558A1, “FLUOROGENIC PROTECTING GROUP” (ISIS INNOVATION LIMITED, priority 2013, published 2016)
